In ChEMBL document CHEMBL1127218, “Synthesis, anti-human immunodeficiency virus, and anti-hepatitis B virus activity of pyrimidine oxathiolane nucleosides” (Bioorg Med Chem Lett, 1993) one finds EC50, IC50 and inhibition data, which are given here for twelve compounds.

Bounds are passed on as bounds.

Test [1] has as its system MT4. Put plainly: Compound was tested for its anti-HIV activity in acutely infected MT-4 cells. It counts as functional, cell-based. To be noted: Homo sapiens.
A short description of test [2]: Compound was tested for its anti-HIV activity against HIV-1 LAI in human peripheral blood mononuclear (PBM) cells. It is filed as functional.
Test [3] is described as follows: Compound was tested for its cytotoxic activity in uninfected human peripheral blood mononuclear (PBM) cells. It counts as functional.
The test system of test [4] is HepG2. The experiment in a line: Percent inhibition for its anti-HBV activity in infected HepG2(2.2.15) cells at concentration of 25 uM. As to conditions: Homo sapiens. It is filed as functional.
In test [5] the test system is Vero. The experiment in a line: Compound was tested for its cytotoxic activity in uninfected Vero cells. It is filed as functional, cell-based. To be noted: Chlorocebus sabaeus.
The test system of test [6] is HepG2. Put plainly: Percent inhibition for its anti-HBV activity in infected HepG2(2.2.15) cells at concentration of 1 uM. It is filed as functional. To be noted: Homo sapiens.

`Nc1nc(=O)n([C@H]2CS[C@@H](CO)O2)cc1Cl`: the EC50 – broadly, the concentration that produces a half-maximal response – was over 200 µM in test [1] and 38.7 µM in test [2]. Besides, the half-inhibitory concentration (IC50) in test [3] and in test [5] was over 100 µM throughout. Besides, in test [4], the inhibition (usually the drop in the measured response relative to a control, in per cent) at 25 µM stood at 58%.

As to `O=c1ccn([C@H]2CS[C@@H](CO)O2)c(=O)[nH]1`, the EC50 in test [1] was over 200 µM; in test [2], over 100 µM. Further, the IC50 in test [3] and in test [5] was over 100 µM each time. The compound also came in with an inhibition at 25 µM in test [4] of 0%.

Regarding `Nc1nc(=O)n([C@H]2CS[C@@H](CO)O2)cc1Br`, the concentration giving a half-maximal response (EC50) is over 200 µM in test [1] and 2.4 µM in test [2]. The IC50 in test [3] and in test [5] was over 100 µM throughout. In test [4], this compound returned an inhibition at 25 µM of 84%.

For `Nc1ccn([C@@H]2CS[C@H](CO)O2)c(=O)n1` [LAMIVUDINE], the results for the EC50 in test [1] and in test [2] were 7 µM and 0.06 µM, respectively. Further, the IC50 in test [3] and in test [5] was over 100 µM each time. Besides, the inhibition at 1 µM in test [6] came to 87%.

Turning to `Cc1cn([C@H]2CS[C@@H](CO)O2)c(=O)[nH]c1=O`, the values for the EC50 in test [1] and in test [2] were over 200 µM and 64.4 µM, respectively. For the same compound, the IC50 in test [3] and in test [5] was over 100 µM in each case. In addition, in test [4], testing at 25 µM gave an inhibition of 0%.

In the case of `O=c1[nH]c(=O)n([C@H]2CS[C@@H](CO)O2)cc1Br`, the figures for the EC50 in test [1] and in test [2] were over 200 µM and over 100 µM, respectively. Further, the IC50 in test [3] and in test [5] was over 100 µM in each case. In test [4], this compound had an inhibition at 25 µM of 11%.

As to `Cc1cn([C@H]2CS[C@@H](CO)O2)c(=O)nc1N`, the EC50 is over 200 µM in test [1] and over 100 µM in test [2]. Also, the IC50 in test [3] and in test [5] was over 100 µM in each case. The compound further registered an inhibition at 25 µM in test [4] of 0%.

Consider `Nc1nc(=O)n([C@H]2CS[C@@H](CO)O2)cc1I`, for which the EC50 was over 200 µM in test [1] and 0.72 µM in test [2]. In addition, the IC50 in test [3] and in test [5] was over 100 µM each time. The same compound showed an inhibition at 25 µM in test [4] of 55%.

Consider `Nc1nc(=O)n([C@H]2CS[C@@H](CO)O2)cc1F`, for which the EC50 came to 2.1 µM in test [1] and 0.01 µM in test [2]. In addition, the IC50 in test [3] and in test [5] was over 100 µM in each case. In addition, the inhibition at 1 µM in test [6] was determined as 90%.

Take `O=c1[nH]c(=O)n([C@H]2CS[C@@H](CO)O2)cc1Cl`: the EC50 in test [1] is over 200 µM; in test [2], 60.8 µM. Besides, the IC50 in test [3] and in test [5] was over 100 µM each time. Moreover, the inhibition at 25 µM in test [4] turned out to be 59%.

`O=c1[nH]c(=O)n([C@H]2CS[C@@H](CO)O2)cc1F`: the EC50 in test [1] was over 200 µM; in test [2], over 100 µM. For the same compound, the IC50 in test [3] and in test [5] was over 100 µM each time. In test [4], the inhibition at 25 µM was determined as 75%.

With `O=c1[nH]c(=O)n([C@H]2CS[C@@H](CO)O2)cc1I`, the results for the EC50 in test [1] and in test [2] were over 200 µM and over 100 µM, respectively. Besides, the IC50 in test [3] and in test [5] was over 100 µM each time. In addition, the inhibition at 25 µM in test [4] worked out at 0%.
